Assay results published in PubChem BioAssay (NCI).
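All cell lines were grown in 96-well plates and treated with compound for 48 hours. TGI is the concentration that stops growth completely.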

Experiments:
Assay in all cases: NCI tumour cell line growth inhibition, 48 h
COLO 205 colon = test system: COLO 205 colon
SK-MEL-28 melanoma = test system: SK-MEL-28 melanoma
UACC-257 melanoma = test system: UACC-257 melanoma
IGROV1 ovarian = test system: IGROV1 ovarian
KM12 colon = test system: KM12 colon
A549 NSCLC = test system: A549 NSCLC
SK-MEL-5 melanoma = test system: SK-MEL-5 melanoma
MDA-N = test system: MDA-N

Row | SMILES | TGI (COLO 205 colon) | TGI (SK-MEL-28 melanoma) | TGI (UACC-257 melanoma) | TGI (IGROV1 ovarian) | TGI (KM12 colon) | TGI (A549 NSCLC) | TGI (SK-MEL-5 melanoma) | TGI (MDA-N)
1 | CC[C@@]1(O)C(=O)OCc2c1cc1n(c2=O)Cc2c-1nc1ccccc1c2/C=N\NC(=O)C(C)N (stereo not given in full) | > 31.6 µM | > 100 µM | 28.7 µM | > 100 µM | > 100 µM | > 26.5 µM | 1.78 µM | > 100 µM
2 | COC(=O)C1CCC(=O)N1C(c1ccc2c(c1)OCO2)c1ccc2c(c1)OCO2 (stereo not given) | > 100 µM | > 100 µM | > 100 µM | > 100 µM | > 100 µM | > 100 µM | > 100 µM | > 100 µM
3 | CC1(C)CC[C@]2(C(=O)O)CC[C@]3(C)C(=CC[C@@H]4[C@@]5(C)CC[C@H](OC6OC(CO)C(O)C(O)C6OC6OC(CO)C(O)C(O)C6O)C(C)(C)[C@@H]5CC[C@]43C)[C@@H]2C1 (stereo not given in full) | 28.7 µM | 28.9 µM | 42 µM | 34.6 µM | 29.4 µM | 33.7 µM | 33.7 µM | 34.8 µM
4 | CN1CCN(c2ccc(-n3cc(C(=O)O)c(=O)c4cc(F)c(N5CCN(C)CC5)cc43)nc2)CC1 | > 100 µM | > 100 µM | > 100 µM | > 100 µM | > 100 µM | > 100 µM | – | > 100 µM
5 | CCc1n[nH]c(=O)n1NC(=O)/C=C\C(=O)O | > 100 µM | – | > 100 µM | > 100 µM | – | > 100 µM | > 100 µM | > 100 µM
6 | C=C(C(=O)O)[C@@H]1C[C@@H]2O[C@H]1CC(C)=CCC/C(C)=C/CC[C@@]2(C)O | > 100 µM | > 100 µM | > 100 µM | > 100 µM | > 100 µM | > 100 µM | > 100 µM | > 100 µM
7 | CCn1cnc2c(NC(C)=O)ncnc21 | > 100 µM | > 100 µM | > 100 µM | > 100 µM | > 100 µM | > 100 µM | > 100 µM | > 100 µM
8 | CN(C)/C=N/S(=O)(=O)c1nn2c(C=O)c(-c3ccc(-c4ccc([N+](=O)[O-])cc4)o3)nc2s1 | – | 6.22 µM | 24.3 µM | 4.42 µM | > 49.1 µM | > 32.8 µM | 16.3 µM | 2.7 µM
9 | Cc1ccc(C)c(NC(=O)C(Cc2c[nH]c3ccccc23)NC(=O)OCc2ccccc2)c1 (stereo not given) | 46.1 µM | > 100 µM | 34.3 µM | 70.8 µM | 69.7 µM | 26.1 µM | 34.5 µM | > 100 µM
10 | O=C(O)C(F)(OC(F)(F)C(F)(OC(F)(F)C(F)(F)C(F)(F)F)C(F)(F)F)C(F)(F)F (stereo not given) | > 100 µM | > 100 µM | > 100 µM | > 100 µM | > 100 µM | > 100 µM | > 100 µM | > 100 µM
11 | c1ccc2c(c1)C(=Nc1ccc(N=C3c4ccccc4-c4ccccc43)cc1)c1ccccc1-2 | > 100 µM | – | > 100 µM | > 100 µM | > 100 µM | > 100 µM | > 100 µM | > 100 µM
12 | CCN(CC)c1nc(N(C)C)c2cc(OC)ccc2n1 | 28.2 µM | > 100 µM | 81.3 µM | > 100 µM | > 100 µM | > 100 µM | 34.2 µM | > 100 µM
13 | C[C@@H]1OC(=O)/C(=C\N(C)C)[C@H]2CC(=O)N(CCc3cn(S(=O)(=O)C(F)(F)F)c4ccccc34)C[C@H]12 | > 100 µM | > 100 µM | > 100 µM | > 100 µM | > 100 µM | > 100 µM | > 100 µM | > 100 µM
14 | CC(C)=CCC[C@H](C)[C@H]1CC[C@@H](C)c2cc(O)c(C)cc21 | 34.3 µM | 36.8 µM | 31.7 µM | 31.4 µM | 37.5 µM | 32.6 µM | 30.4 µM | 32.1 µM
15 | CCOC1SC(SC)=NN1C(=O)C(OC(C)=O)C(OC(C)=O)C(OC(C)=O)C(OC(C)=O)C(=O)N1N=C(SC)SC1OCC (stereo not given) | > 100 µM | > 100 µM | > 100 µM | > 100 µM | > 100 µM | > 100 µM | > 100 µM | > 100 µM
16 | COC(Cc1ccccc1)NC(C)=O (stereo not given) | > 100 µM | > 100 µM | > 100 µM | > 100 µM | > 100 µM | > 100 µM | > 100 µM | > 100 µM
17 | Cc1n[nH]c(=O)n1N1C(=O)c2ccccc2C1=O | > 100 µM | > 100 µM | > 100 µM | > 100 µM | > 100 µM | > 100 µM | > 100 µM | > 100 µM
18 | Cc1cc(C#N)c(Nc2c(C)cccc2[N+](=O)[O-])s1 | > 100 µM | > 100 µM | > 100 µM | – | > 100 µM | > 100 µM | – | > 100 µM

Row | SMILES | TGI (COLO 205 colon) | TGI (SK-MEL-28 melanoma) | TGI (UACC-257 melanoma) | TGI (IGROV1 ovarian) | TGI (KM12 colon) | TGI (A549 NSCLC) | TGI (SK-MEL-5 melanoma) | TGI (MDA-N)
19 | CCNCCNC(=O)c1ccc(Br)cc1 | – | > 100 µM | – | > 100 µM | > 100 µM | > 100 µM | > 100 µM | –
20 | Cc1nc(C)c(N2CCN(C#N)CC2)c(=O)[nH]1 | > 100 µM | > 100 µM | > 100 µM | > 100 µM | > 100 µM | > 100 µM | > 100 µM | > 100 µM
21 | CC(=O)OCc1cn(S(=O)(=O)c2ccc(C)cc2)cn1 | > 100 µM | > 100 µM | – | > 100 µM | – | > 100 µM | > 100 µM | 52.6 µM
22 | Cc1cc(-c2nc3cc(F)c(F)cc3s2)ccc1N | > 100 µM | > 100 µM | > 100 µM | – | > 100 µM | > 100 µM | > 100 µM | > 100 µM
23 | O=C1O[C@H]2[C@@H]3OC(=O)c4cc(O)c(O)c(O)c4-c4c(cc(O)c(O)c4O)C(=O)OC[C@H]2O[C@@H](OC(=O)c2cc(O)c(O)c(O)c2)[C@@H]3OC(=O)c2cc(O)c(O)c3c2[C@@H]2C1=CC(=O)C(O)(O)C2(O)O3 (stereo not given in full) | > 100 µM | > 100 µM | > 100 µM | > 100 µM | 80.1 µM | > 100 µM | > 100 µM | 34.6 µM
24 | CCCCCCCCCCCCP(=O)(O)OCC(N)C(=O)O (stereo not given) | > 100 µM | > 100 µM | > 100 µM | > 100 µM | – | > 100 µM | > 100 µM | 55.4 µM
25 | NC(CCCCNC(=O)C(Cc1ccccc1)NC(=O)OCc1ccccc1)C(=O)NC(CCCCNC(=O)C(Cc1ccccc1)NC(=O)OCc1ccccc1)C(=O)NC(CCCCNC(=O)C(Cc1ccccc1)NC(=O)OCc1ccccc1)C(=O)NC(CCCCNC(=O)C(Cc1ccccc1)NC(=O)OCc1ccccc1)C(=O)NC(CCCCNC(=O)C(Cc1ccccc1)NC(=O)OCc1ccccc1)C(=O)NC(CCCCNC(=O)C(Cc1ccccc1)NC(=O)OCc1ccccc1)C(=O)O (stereo not given) | – | > 100 µM | > 100 µM | > 100 µM | – | > 100 µM | > 100 µM | > 100 µM
26 | C/C(=N\Nc1nc2ccccc2o1)c1ccncn1 | > 51.3 µM | > 100 µM | > 27.5 µM | 30.9 µM | 11.6 µM | > 32.7 µM | > 81.6 µM | –
27 | CC(C)(C)NC1C2CCC(C)(C1O)C2(C)C (stereo not given) | > 100 µM | > 100 µM | > 100 µM | > 100 µM | > 100 µM | > 100 µM | > 100 µM | –
28 | COc1cc(/C=C(\C#N)c2ccccn2)cc(Br)c1O | > 100 µM | > 100 µM | > 100 µM | > 100 µM | > 100 µM | > 100 µM | > 100 µM | > 100 µM
29 | COC(=O)[C@@H]1C[C@]2(CC=C(C)C)c3ccccc3N(S(=O)(=O)c3ccccc3)[C@@H]2N1C(=O)OC | > 100 µM | > 100 µM | 51.6 µM | – | > 100 µM | > 100 µM | 26 µM | > 100 µM
30 | COc1cccc(-n2c(N)c(-c3nc4cc(C(F)(F)F)ccc4s3)c3ccc([N+](=O)[O-])cc3c2=O)c1 | > 100 µM | > 100 µM | > 100 µM | – | > 100 µM | > 100 µM | > 100 µM | > 100 µM
31 | CN(C(=O)c1cccs1)C(=S)N1CCN(c2ccccc2)CC1 | > 100 µM | > 100 µM | > 100 µM | > 100 µM | > 100 µM | > 100 µM | > 100 µM | > 100 µM
32 | N/N=C(\C(=O)Nc1ccc([N+](=O)[O-])cc1)C(C1=Nc2cc([N+](=O)[O-])ccc2NC1)[N+](=O)[O-] (stereo not given) | – | > 100 µM | > 100 µM | > 100 µM | > 100 µM | > 100 µM | > 100 µM | > 100 µM
33 | N=c1oc2c(Cl)cc(Cl)cc2cc1C(=O)Nc1ccccn1 | > 100 µM | > 100 µM | > 100 µM | – | > 100 µM | > 100 µM | > 100 µM | > 100 µM
34 | CCCCP(CCCC)(CCCC)=C(C(=O)OC)C(C(=O)OC)=C1SC(C(=O)OC)=C(C(=O)OC)S1 | 45.5 µM | 29.8 µM | 37.3 µM | 23.8 µM | – | 40.1 µM | 29.7 µM | –
35 | OCSc1nn(CO)c(=S)s1 | 67.8 µM | 49.9 µM | 48.1 µM | 47.8 µM | 40.4 µM | > 100 µM | > 100 µM | –
